Laboratory results as given in patent US20100280986A1, “SYSTEMS AND METHODS FOR TAILORING ACUTE AND CHRONIC VIRAL INFECTION […] INCREASE THE P[…] "CURE" FOR A GIVEN SUBJECT” (Roche Palo Alto, priority 2009, published 2010).

Tested on: HCV
Test: HCV viral kinetic population model (nonlinear mixed effects) fitted to long-term viral load profiles of 2100 CHC patients
Assay type: in vivo, human (patients)
Text: In an embodiment, a population model may account for the ribavirin effect, the natural turnover and proliferation of hepatocytes, and the viral eradication.
In this example, liver physiological/patho-physiology characteristics are incorporated into model 400, such as hepatocyte cell maturation (source s), death rate (death d), maximal liver size (Tmax). Model 400 can be parameterization in terms of a reproductive ratio (RR0) rather than cell infectivity (infection β). A “cure” boundary condition can be provided when a number of infected cells is predicted to be <=1.
HCV viral kinetic model 400 is extended with a density dependent proliferation of hepatocytes [r].
Infectious HCV virions (VI) infect target cells (uninfected hepatocytes) [T] creating productively infected cells (I) at a rate β·V1·T. Uninfected hepatocytes are produced at rate s and die at rate d. Infected hepatocytes die at rate δ. Infectious (VI) and non-infectious (VNI) virions are produced at rate p and cleared at rate c. The measured viral load (V) can be expressed in IU/mL, representing the sum of infectious and non-infectious virions V=VI+VN.
Continuing the example, DoseRBV is the daily dose of ribavirin per kg body weight and ED50RRV is the estimated daily dose in mg/kg rendering 40% of the virions non-infectious. […]

## NC(=O)c1ncn([C@@H]2O[C@H](CO)[C@@H](O)[C@H]2O)n1 [ribavirin]
Population estimate, daily dose per kg body weight
  ED50RBV (estimated daily dose rendering virions non-infectious): 14.4 mg˜kg^−1·day^−1
Standard ribavirin treatment of 1000/1200 mg per day
  Fraction of the virions rendered non-infectious: 40-60%
